Among the test systems are A549 NSCLC; COLO 205 colon; HOP-92 NSCLC; K-562 leukemia; MCF7 breast; MDA-MB-231 breast; MOLT-4 leukemia; SF-268 CNS; SK-MEL-2 melanoma; UACC-62 melanoma.
Test in all cases: NCI-60 cell line screen, 48 h

Values joined by “and” are separate entries in the source; they are usually repeats but may differ in a detail not shown here. Equal entries are not always repeated.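 Following 48 hours of exposure in 96-well plates, responses at five concentrations were used to interpolate endpoints linearly. Here, GI50 denotes the concentration required for 50% inhibition of growth. TGI: concentration producing complete growth inhibition.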

For the compound `N#Cc1nc2c(S(=O)(=O)c3ccc(Cl)cc3)c(N)n(CCCN3CCOCC3)c2nc1C#N`, the GI50 in the assay on A549 NSCLC was 19.5 µM; in the assay with COLO 205 colon, 3.45 µM; in the assay with HOP-92 NSCLC, 2.72 µM; with K-562 leukemia, 3 µM; in the assay on MCF7 breast, 3.76 µM; with MDA-MB-231 breast, 3.58 µM. The GI50 was 2.63 µM with MOLT-4 leukemia, 5.19 µM with SF-268 CNS, 6.77 µM in the assay on SK-MEL-2 melanoma and 10.8 µM in the assay with UACC-62 melanoma. The TGI with A549 NSCLC was 84.1 µM; in the assay with COLO 205 colon, 13.6 µM; in the assay with HOP-92 NSCLC it was 30.2 µM; in the assay with K-562 leukemia it was 31 µM; in the assay with MCF7 breast, 16.5 µM; in the assay with MDA-MB-231 breast it was 14.4 µM. For the same compound, the TGI in the assay on MOLT-4 leukemia came to 9.64 µM; in the assay with SF-268 CNS, 35.4 µM; with SK-MEL-2 melanoma it was 24.5 µM; with UACC-62 melanoma, 31.1 µM.

`COC(=O)Nc1nc2ccc(Oc3cccc(NC(=O)Nc4cc(C(F)(F)F)ccc4F)c3)cc2[nH]1`: the GI50 in the assay with A549 NSCLC was 16 µM; with COLO 205 colon, 8.82 µM; in the assay with HOP-92 NSCLC, 2.94 µM; in the assay with K-562 leukemia, 0.452 µM; in the assay with MCF7 breast it was 4.45 µM; with MDA-MB-231 breast, 11.4 µM. The GI50 in the assay on MOLT-4 leukemia is 15.8 µM; with SF-268 CNS, 18.5 µM; in the assay with SK-MEL-2 melanoma, 5.28 µM; in the assay on UACC-62 melanoma, 8.11 µM. Besides, the TGI in the assay with A549 NSCLC was greater than 25 µM; in the assay with COLO 205 colon, greater than 25 µM; in the assay on HOP-92 NSCLC, greater than 22.2 µM; in the assay with K-562 leukemia, greater than 25 µM; in the assay on MCF7 breast it was greater than 7.9 µM; with MDA-MB-231 breast, greater than 25 µM. For the same compound, the TGI in the assay on MOLT-4 leukemia was greater than 25 µM; with SF-268 CNS it was greater than 25 µM; with SK-MEL-2 melanoma, 19.5 µM; with UACC-62 melanoma, greater than 25 µM.

With `COc1ccc(Cl)c(Nc2nc3ccccc3nc2NS(=O)(=O)c2cccc(NC(=O)C(C)(C)N)c2)c1`, the GI50 was 7.7 µM and > 10 µM in the assay on A549 NSCLC; 7.53 µM and 2.86 µM in the assay on COLO 205 colon; 1.57 µM and 0.358 µM with HOP-92 NSCLC; 14.9 µM and > 10 µM in the assay with K-562 leukemia; 2.66 µM and 1.9 µM with MCF7 breast; 14.5 µM and > 10 µM in the assay on MDA-MB-231 breast. For the same compound, the GI50 in the assay with MOLT-4 leukemia was 3.5 µM and 3.66 µM; with SF-268 CNS, 10.9 µM and 9.94 µM; in the assay on SK-MEL-2 melanoma, 14.9 µM and > 10 µM; with UACC-62 melanoma, 13 µM. For the same compound, the TGI is 21.4 µM and > 10 µM in the assay with A549 NSCLC; 22.3 µM and > 10 µM with COLO 205 colon; 9.94 µM and 5.42 µM in the assay with HOP-92 NSCLC; 32.6 µM and > 10 µM in the assay with K-562 leukemia; 16.8 µM and > 10 µM in the assay on MCF7 breast; 32.6 µM and > 10 µM in the assay on MDA-MB-231 breast. Also, the TGI with MOLT-4 leukemia was 17.4 µM and > 10 µM; with SF-268 CNS, 25.5 µM and > 10 µM; in the assay on SK-MEL-2 melanoma, 32.1 µM and > 10 µM; in the assay on UACC-62 melanoma, 26.6 µM.

Regarding `COc1cc(/C=C/C(=O)c2ccc(F)cc2)ccc1OCCCN1CCN(CC(=O)Nc2ccc(Cl)cc2C(=O)c2ccccc2Cl)CC1`, the GI50 was 15.9 µM in the assay with A549 NSCLC; 4.47 µM in the assay on COLO 205 colon; 1.38 µM with HOP-92 NSCLC; 3.6 µM with K-562 leukemia; 2.69 µM with MCF7 breast; 11.6 µM in the assay on MDA-MB-231 breast. In addition, the GI50 is 3.23 µM in the assay on MOLT-4 leukemia, 16.9 µM in the assay on SF-268 CNS, 12.6 µM in the assay on SK-MEL-2 melanoma and 10.4 µM in the assay with UACC-62 melanoma. Also, the TGI in the assay with A549 NSCLC is greater than 100 µM; in the assay with COLO 205 colon it was 23.8 µM; in the assay with HOP-92 NSCLC, 10.3 µM; with K-562 leukemia, greater than 100 µM; in the assay with MCF7 breast, 12.1 µM; in the assay with MDA-MB-231 breast, 27.1 µM. Also, the TGI is greater than 100 µM with MOLT-4 leukemia, greater than 100 µM in the assay on SF-268 CNS, 32.1 µM with SK-MEL-2 melanoma and 22.9 µM in the assay on UACC-62 melanoma.

For `O=c1c(O)c(-c2ccc(O)c(O)c2)oc2cc(O)cc(O)c12`, the GI50 in the assay on A549 NSCLC was 19.3 µM; with COLO 205 colon, 60.8 µM; in the assay with HOP-92 NSCLC, 6.16 µM; in the assay with K-562 leukemia, 5.2 µM; with MCF7 breast, 7.95 µM; with MDA-MB-231 breast it was 9.36 µM. Moreover, the GI50 in the assay with MOLT-4 leukemia was 13 µM; in the assay with SF-268 CNS, 10.2 µM; in the assay with SK-MEL-2 melanoma, 15.1 µM; with UACC-62 melanoma, 4.74 µM. Also, the TGI in the assay on A549 NSCLC was greater than 100 µM; in the assay on COLO 205 colon it was greater than 100 µM; with HOP-92 NSCLC it was greater than 74.8 µM; in the assay on K-562 leukemia it was greater than 100 µM; with MCF7 breast, greater than 100 µM; in the assay on MDA-MB-231 breast it was greater than 100 µM. The TGI in the assay with MOLT-4 leukemia is greater than 100 µM; with SF-268 CNS it was 75.5 µM and > 100 µM; in the assay on SK-MEL-2 melanoma, 47.3 µM and > 100 µM; in the assay with UACC-62 melanoma it was 25.5 µM and > 100 µM.

Consider `COC(=N)c1c(N)[n+]([O-])c2ccc(F)cc2[n+]1[O-]`, for which the GI50 with A549 NSCLC was greater than 100 µM; in the assay with COLO 205 colon, 61.7 µM; with HOP-92 NSCLC, 78.8 µM; with K-562 leukemia it was greater than 100 µM; in the assay with MCF7 breast it was 76.4 µM; in the assay with MDA-MB-231 breast, greater than 100 µM. Moreover, the GI50 in the assay on MOLT-4 leukemia, in the assay with SF-268 CNS, with SK-MEL-2 melanoma and with UACC-62 melanoma was greater than 100 µM in each case. For the same compound, the TGI in the assay on A549 NSCLC, in the assay on COLO 205 colon, in the assay with HOP-92 NSCLC, with K-562 leukemia, in the assay on MCF7 breast and in the assay with MDA-MB-231 breast was greater than 100 µM in each case. The TGI in the assay on MOLT-4 leukemia, in the assay on SF-268 CNS, with SK-MEL-2 melanoma and with UACC-62 melanoma was greater than 100 µM throughout.

Consider `CN1CCc2[nH]nc(-c3n[nH]c4c3CN(C)CC4)c2C1`, for which the TGI in the assay with A549 NSCLC, in the assay with COLO 205 colon, in the assay with HOP-92 NSCLC, in the assay on K-562 leukemia, in the assay with MCF7 breast and in the assay on MDA-MB-231 breast was greater than 100 µM throughout. The TGI in the assay with MOLT-4 leukemia, in the assay with SF-268 CNS, in the assay on SK-MEL-2 melanoma and in the assay with UACC-62 melanoma was greater than 100 µM throughout.

As to `Nc1c(C(=O)c2cccc(-c3cccnc3)c2)cnn1-c1ccc(F)cc1F`, the GI50 with A549 NSCLC was 2.05 µM; in the assay on COLO 205 colon it was 1.19 µM; in the assay on HOP-92 NSCLC it was 1.94 µM; in the assay with K-562 leukemia, 0.962 µM; with MCF7 breast it was 1.59 µM; with MDA-MB-231 breast, 3.8 µM. Also, the GI50 in the assay with MOLT-4 leukemia was 7.85 µM; with SF-268 CNS it was 10.8 µM; in the assay on SK-MEL-2 melanoma, 3.87 µM; in the assay with UACC-62 melanoma, 2.65 µM. Besides, the TGI in the assay with A549 NSCLC is greater than 25 µM; in the assay with COLO 205 colon it was greater than 25 µM; with HOP-92 NSCLC, 17.4 µM; in the assay with K-562 leukemia, 24.5 µM; with MCF7 breast, greater than 25 µM; with MDA-MB-231 breast, greater than 25 µM. Also, the TGI in the assay with MOLT-4 leukemia was greater than 25 µM; with SF-268 CNS, greater than 25 µM; with SK-MEL-2 melanoma it was greater than 18.4 µM; in the assay on UACC-62 melanoma, greater than 25 µM.

These data come from PubChem BioAssay (NCI).
